The record followed here is patent US10679730B2, “Prognostic and predictive breast cancer signature” (The University of Chicago, priority 2013, dated 2020).

Common to all, as to type: cell-based, human
One test relates to TET1 mRNA in 1833 cells. In words: qRT-PCR for TET1 mRNA after demethylation treatment of 1833 cells. The following applies: 1833 cells treated with 5-azacytidine, GAPDH normalization (FIG. 18D). As to the method:
(§1) Total RNA was isolated from cells by using miRNeasy Mini Kit (Qiagen) following the manufacturer's instructions. Quantitative RT-PCR (qRT-PCR) was performed as described (4). The qPCR primers for human or murine HMGA2, TET1, HOXA genes and GAPDH were Taqman and were purchased from Applied Biosystems. Cells were subjected to 5-azacytidine (1 or 3.6 μM), decitabine (5-aza-dC; 220 or 440 nM), or mock treatment by addition into cell culture at indicated concentration. Cells were treated daily. RNA and protein were isolated respectively.
A general note: Real-time PCR tracks product formation cycle by cycle.

Another test has as its system HOXA7 mRNA in 1833 cells. In words: qRT-PCR for HOXA7 mRNA after demethylation treatment of 1833 cells. As to conditions: 1833 cells treated with 5-azacytidine, GAPDH normalization (FIG. 20F). As to the method:
as §1

Another test relates to HOXA9 in 1833 cells. Briefly: qRT-PCR / immunoblotting for HOXA9 after demethylation treatment of 1833 cells. As to conditions: 1833 cells treated with demethylation reagent; qRT-PCR / immunoblotting (FIG. 20G, 27A, 27C). As to the method: Total RNA was isolated from cells by using miRNeasy Mini Kit (Qiagen) following the manufacturer's instructions. Quantitative RT-PCR (qRT-PCR) was performed as described (4). The qPCR primers for human or murine HMGA2, TET1, HOXA genes and GAPDH were Taqman and were purchased from Applied Biosystems.
Cells were lysed in complete lysis buffer (pH 7.5) by using Nuclear Extract Kit (Active Motif) following the manufacturer's protocols. Proteins were measured, separated, and probed as described (4). Antibodies specific for each protein were HMGA2 (61042; Active Motif), TET1 (sc-163446; Santa Cruz Biotechnologies), HOXA7 (09-086; Millipore), HOXA9 (09-178; Millipore), GAPDH (ab9484; Abcam), and Flag-M1 (F3040; Sigma).
(§2) Cells were subjected to 5-azacytidine (1 or 3.6 μM), decitabine (5-aza-dC; 220 or 440 nM), or mock treatment by addition into cell culture at indicated concentration. Cells were treated daily. RNA and protein were isolated respectively.

The next test concerns 1833 cells. Briefly: In vitro cell invasion assay (Matrigel). The following applies: 1833 cells treated with demethylation reagent (FIG. 21D, 27B). The procedure: as §2
Cell proliferation assays were performed by using the CellTiter-Blues assay (Promega) as described (4). Invasion assays were performed as described (4) with modifications. Briefly, the inserts were coated with Matrigel basement membrane matrix (BD Biosciences). To assess the cell invasion ability, […] cells were seeded on top of the polymerized Matrigel in serum-free medium, and complete medium (10% FBS) was placed in the lower compartment. After 24 h, cells on the lower part of the insert were stained with BD Calcein AM Fluorescent Dye. The inserts with the invaded cells were incubated in dissociation buffer (Travigen) with gentle shaking. Fluorescence measurements were used to record data with 485 nm for excitation and 530 nm for emission.

Consider `Nc1ncn([C@@H]2O[C@H](CO)[C@@H](O)[C@H]2O)c(=O)n1` [5-azacytidine], for which the TET1 expression entry with TET1 mRNA in 1833 cells is listed as “increase in TET1 expression”. For the same molecule, in the test on HOXA7 mRNA in 1833 cells, the HOXA7 expression entry is recorded as “dramatic increase”. Besides, the HOXA9 expression entry in the test with HOXA9 in 1833 cells is “dramatic increase”. Also, the cell invasion entry in the test on 1833 cells is “decreased cell invasion”.
